# Reference: PubChem BioAssay AID2060506 (Molecular Pharmacology Branch, DTP, NCI, 2025)
# System: 598228-144-R-J1-PDC complex spheroid viability
# Experiment: Anticancer human tumor 598228-144-R-J1-PDC patient-derived serous endometrial adenocarcinoma cell line growth inhibition [GQUAD]
# Settings: for IC50: curve of first compound; for viability, T/C: stronger effect = lower value
# Procedure, shortened: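 Tumor cells were grown as complex spheroids with HUVEC endothelial cells and mesenchymal stem cells as stroma. G-quadruplex stabilizers were combined with targeted agents over half-log dilutions from near the clinical Cmax, or from 10 microM.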
# [1] = second compound 0.0316 µM, first compound 0.0316 µM
# [2] = second compound 0.0316 µM, first compound 0.1 µM
# [3] = second compound 0.0316 µM, first compound 0.316 µM
# [4] = second compound 0.0316 µM, first compound 1 µM
# [5] = second compound 0.0316 µM, first compound 3.16 µM
# [6] = second compound 0.0316 µM, first compound 10 µM
# [7] = second compound 0.1 µM, first compound 0.0316 µM
# [8] = second compound 0.1 µM, first compound 0.1 µM
# [9] = second compound 0.1 µM, first compound 0.316 µM
# [10] = second compound 0.1 µM, first compound 1 µM
# [11] = second compound 0.1 µM, first compound 3.16 µM
# [12] = second compound 0.1 µM, first compound 10 µM
# [13] = second compound 0.316 µM, first compound 0.0316 µM
# [14] = second compound 0.316 µM, first compound 0.1 µM
# [15] = second compound 0.316 µM, first compound 0.316 µM
# [16] = second compound 0.316 µM, first compound 1 µM
# [17] = second compound 0.316 µM, first compound 3.16 µM
# [18] = second compound 0.316 µM, first compound 10 µM
# [19] = second compound 1 µM, first compound 0.0316 µM
# [20] = second compound 1 µM, first compound 0.1 µM
# [21] = second compound 1 µM, first compound 0.316 µM
# [22] = second compound 1 µM, first compound 1 µM
# [23] = second compound 1 µM, first compound 3.16 µM
# [24] = second compound 1 µM, first compound 10 µM
# [25] = second compound 3.16 µM, first compound 0.0316 µM
# [26] = second compound 3.16 µM, first compound 0.1 µM
# [27] = second compound 3.16 µM, first compound 0.316 µM
# [28] = second compound 3.16 µM, first compound 1 µM
# [29] = second compound 3.16 µM, first compound 3.16 µM
# [30] = second compound 3.16 µM, first compound 10 µM
# [31] = second compound 10 µM, first compound 0.0316 µM
# [32] = second compound 10 µM, first compound 0.1 µM
# [33] = second compound 10 µM, first compound 0.316 µM
# [34] = second compound 10 µM, first compound 1 µM
# [35] = second compound 10 µM, first compound 3.16 µM
# [36] = second compound 10 µM, first compound 10 µM
# 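Further: spheroids exposed to the agents for one week before reading.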
# 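Wherever viability, T/C is given: percent of vehicle DMSO control viability so 100% = untreated growth.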
smiles,measurement,setting,value
Cc1cccc(N(C)C(=O)C2C(O)CCN2c2nc(C)cc(C(F)(F)F)c2C#N)c1 (centres undefined) + Cc1[nH]c2ccc(F)cc2c1-c1nc2c3cccnc3c3ncccc3c2[nH]1,IC50,second compound 0.0316 µM,> 10000 nM
same,IC50,second compound 0.1 µM,> 10000 nM
same,IC50,second compound 0.316 µM,> 10000 nM
same,IC50,second compound 1 µM,> 10000 nM
same,IC50,second compound 3.16 µM,< 31.6 nM
same,IC50,second compound 10 µM,> 10000 nM
same,"viability, T/C",[1],114%
same,"viability, T/C",[2],113%
same,"viability, T/C",[3],112%
same,"viability, T/C",[4],82%
same,"viability, T/C",[5],104%
same,"viability, T/C",[6],100%
same,"viability, T/C",[7],110%
same,"viability, T/C",[8],112%
same,"viability, T/C",[9],98%
same,"viability, T/C",[10],94.1%
same,"viability, T/C",[11],104%
same,"viability, T/C",[12],81.7%
same,"viability, T/C",[13],99.8%
same,"viability, T/C",[14],90.3%
same,"viability, T/C",[15],80.9%
same,"viability, T/C",[16],79.2%
same,"viability, T/C",[17],83.9%
same,"viability, T/C",[18],92.7%
same,"viability, T/C",[19],58.6%
same,"viability, T/C",[20],52.7%
same,"viability, T/C",[21],56.2%
same,"viability, T/C",[22],45%
same,"viability, T/C",[23],71.1%
same,"viability, T/C",[24],57.7%
same,"viability, T/C",[25],40.8%
same,"viability, T/C",[26],45.4%
same,"viability, T/C",[27],52.6%
same,"viability, T/C",[28],34.9%
same,"viability, T/C",[29],39.5%
same,"viability, T/C",[30],36.1%
same,"viability, T/C",[31],68.4%
same,"viability, T/C",[32],44.8%
same,"viability, T/C",[33],53.5%
same,"viability, T/C",[34],67.3%
same,"viability, T/C",[35],58%
same,"viability, T/C",[36],61.6%
COc1ccc([C@@H](O)c2cc(-c3ncnc4cc(N5CCOCC5)ccc34)c(F)cc2Cl)nn1 + Cc1cnc(CNC(=O)c2c(=O)c3ccc(N4CCCN(C)CC4)nc3n3c2sc2ccccc23)cn1,IC50,second compound 0.0316 µM,2710 nM
same,IC50,second compound 0.1 µM,1440 nM
same,IC50,second compound 0.316 µM,1040 nM
same,IC50,second compound 1 µM,794 nM
same,IC50,second compound 3.16 µM,< 31.6 nM
same,IC50,second compound 10 µM,< 31.6 nM
same,"viability, T/C",[1],105%
same,"viability, T/C",[2],80.9%
same,"viability, T/C",[3],66.6%
same,"viability, T/C",[4],66.5%
same,"viability, T/C",[5],52.3%
same,"viability, T/C",[6],33.9%
same,"viability, T/C",[7],67%
same,"viability, T/C",[8],70.4%
same,"viability, T/C",[9],64.3%
same,"viability, T/C",[10],51.7%
same,"viability, T/C",[11],43.5%
same,"viability, T/C",[12],33%
same,"viability, T/C",[13],63.2%
same,"viability, T/C",[14],63.5%
same,"viability, T/C",[15],62.7%
same,"viability, T/C",[16],49.1%
same,"viability, T/C",[17],35.3%
same,"viability, T/C",[18],25.5%
same,"viability, T/C",[19],65.9%
same,"viability, T/C",[20],61.6%
same,"viability, T/C",[21],51.6%
same,"viability, T/C",[22],46.1%
same,"viability, T/C",[23],42%
same,"viability, T/C",[24],14.2%
same,"viability, T/C",[25],50%
same,"viability, T/C",[26],36.8%
same,"viability, T/C",[27],41.9%
same,"viability, T/C",[28],31.6%
same,"viability, T/C",[29],20.9%
same,"viability, T/C",[30],0.39%
same,"viability, T/C",[31],35.2%
same,"viability, T/C",[32],40.2%
same,"viability, T/C",[33],19.1%
same,"viability, T/C",[34],0.71%
same,"viability, T/C",[35],0.33%
same,"viability, T/C",[36],0.26%
